Data set [1] in a line: acute toxicity (LD50 Mouse), Litchfield and Wilcoxon. Particulars: in vivo. The source says: Tests to determine the toxicity have been carried out. In each case 6 mice were given a particular dose of the compound to be tested combined with a suitable neutral diluent, administration being carried out perorally, intraveneously and/or intraperitoneally.
The statistical evaluation took place according to the method of J. F. Litchfield, Jr. and F. Wilcoxon in: "Journal of Pharmacology and Experimental Therapeutics", Volume 96 (1949), pages 99-113.
In the following Table II the toxicity of Compounds A to M are given.

Data set [2] concerns rats having artificially promoted high blood pressure (according to Goldblatt). The experiment in a line: blood pressure reduction in rats having artificially promoted high blood pressure (according to Goldblatt), plethysmographic at base of tail. To be noted: Rattus norvegicus, single dose; for change in vivo at 20 mg/kg: 20 mg/kg p.o. The class given is in vivo. The procedure:
To show the blood pressure reducing properties of typical compounds according to the invention, products of the Examples were administered, to rats having artificially promoted high blood pressure (according to Goldblatt), in the form of solution either by injection under the skin of the back (subcutaneously) or by means of a stomach tube (perorally). 1,2.5 and 4 hours (and 1.75 hours in the case of Compound A) after administration of the substance the systolic and diastolic blood pressures were measured plethysmographically at the base of the tail of the rat. In the following Table I there is given for each of the individual compounds (designated A to M) the average value of the blood pressure in mm Hg before the administration of the compound, the time (determined from the measuring time) of maximum blood pressure reduction and the maximum reduction of the systolic and diastolic blood pressures expressed as a percentage of the initial value after a single administration of the dose.

Setting [3] is: sc, 10 mg/kg s.c., at the time given in the same line, read-out: Maximum blood pressure reduction, diastolic (percent of initial value).
Setting [4] is: sc, 10 mg/kg s.c., at the time given in the same line, read-out: Maximum blood pressure reduction, systolic (percent of initial value).

SMILES strings stand for the structures. Structures can show the parent of a compound that is named as a salt. Where two headings read alike, the source gives them in different places.

One may read the LD50 as the dose expected to kill half of the subjects tested. Higher therefore signals a less toxic substance. For the molecule `Clc1ccccc1OCCNCCc1ccncc1` [Compound G, N-[4-Pyridyl-ethyl(2)]-o-chloro-phenoxyethylamine dioxalate dihydrate], the median lethal dose (LD50) is about 200 mg/kg in data set [1] (ip) and 71.7 mg/kg in data set [1] (iv).

For the molecule `COc1ccccc1OCCNCc1ncccc1O.Cl.Cl` [Compound M, N-[(3-Hydroxy-2-pyridyl)-methyl]-o-methoxy-phenoxyethylamine dihydrochloride], the change in vivo at 10 mg/kg in data set [2] (setting [3]) was -12%; in data set [2] (setting [4]), -11%. Also, in data set [1] (iv), the LD50 was determined as 55.6 mg/kg.

For `COc1ccccc1OCCNCc1ccncc1` [Compound E, N-(4-Pyridyl-methyl)-o-methoxy-phenoxyethylamine . 2 HCl], the change in vivo at 10 mg/kg in data set [2] (po, 10 mg/kg p.o., read-out: Maximum blood pressure reduction, diastolic (percent of initial value)) was -22%; in data set [2] (po, 10 mg/kg p.o., read-out: Maximum blood pressure reduction, systolic (percent of initial value)), -20%; in data set [2] (setting [3]), -18%; in data set [2] (setting [4]) it was -15%. For the same molecule, the LD50 in data set [1] (ip) is 364 mg/kg; in data set [1] (iv) it was 90.1 mg/kg; in data set [1] (po), 730 mg/kg.

As to `COc1ccccc1OCCNCc1ccccn1` [Compound D, N-(2-Pyridyl-methyl)-o-methoxy-phenoxyethylamine. 2 HCl], the figures for the change in vivo at 10 mg/kg in data set [2] (setting [3]) and in data set [2] (setting [4]) were -25% and -22%, respectively. Besides, the LD50 in data set [1] (ip) stood at 150 mg/kg; in data set [1] (iv), 51 mg/kg; in data set [1] (po), 750 mg/kg.

Take `COc1ccccc1OCCNCCc1ccccn1` [Compound B, N-[2-Pyridyl-ethyl(2)]-o-methoxy-phenoxyethylamine . 2 HCl]: the change in vivo at 10 mg/kg in data set [2] (setting [3]) was -23%; in data set [2] (setting [4]), -20%. For the same molecule, the LD50 was 150 mg/kg in data set [1] (ip) and 31.5 mg/kg in data set [1] (iv).

For the molecule `COc1ccccc1OCCNCCc1ccncc1` [Compound A, N-[4-Pyridyl-ethyl(2)]-o-methoxy-phenoxyethylamine.2 HCl], the change in vivo at 20 mg/kg in data set [2] (po, read-out: Maximum blood pressure reduction, diastolic (percent of initial value)) is -32%; in data set [2] (po, read-out: Maximum blood pressure reduction, systolic (percent of initial value)), -28%. Moreover, the change in vivo at 10 mg/kg in data set [2] (setting [3]) is -34%; in data set [2] (setting [4]), -25%. The LD50 in data set [1] (ip) worked out at 150 mg/kg; in data set [1] (iv) it was 53.5 mg/kg; in data set [1] (po) it was 290 mg/kg.

For `N#Cc1ccccc1OCCNCCc1ccncc1` [Compound L, N-[4-Pyridyl-ethyl(2)]-o-cyano-phenoxyethylamine dioxalate hydrate], the change in vivo at 10 mg/kg in data set [2] (setting [3]) is -19%; in data set [2] (setting [4]), -17%. In addition, the LD50 in data set [1] (ip) was 91 mg/kg; in data set [1] (po), 245 mg/kg.

In the case of `Clc1ccccc1OCCCCNCCc1ccncc1` [Compound K, N-[4-Pyridyl-ethyl(2)]-o-chloro-phenoxybutylamine dioxalate monohydrate], the change in vivo at 10 mg/kg in data set [2] (setting [3]) is -19%; in data set [2] (setting [4]) it was -15%. Moreover, the LD50 was found to be 182 mg/kg in data set [1] (ip) and 235 mg/kg in data set [1] (po).

Consider `Cc1cccnc1CNCCOc1ccccc1Cl` [Compound H, N-[(3-Methyl-2-pyridyl)-methyl]-o-chloro-phenoxyethylamineoxalate hydrate], for which the change in vivo at 10 mg/kg in data set [2] (setting [3]) and in data set [2] (setting [4]) was -16% in each case. Besides, the LD50 in data set [1] (ip) stood at 220 mg/kg; in data set [1] (iv), 50 mg/kg.

Regarding `Cc1cccnc1CNCCOc1ccccc1C#N` [Compound J, N-[(3-Methyl-2-pyridyl)-methyl]-o-cyano-phenoxyethylamineoxalate hydrate], the change in vivo at 10 mg/kg in data set [2] (setting [3]) was -12%; in data set [2] (setting [4]), -11%. Further, the LD50 in data set [1] (iv) turned out to be 73.3 mg/kg; in data set [1] (po) it was 660 mg/kg.

`COc1ccccc1OCCNCc1cccnc1` [Compound C, N-(3-Pyridyl-methyl)-o-methoxy-phenoxyethylamine .2 HCl]: the change in vivo at 10 mg/kg in data set [2] (setting [3]) was -16%; in data set [2] (setting [4]), -15%. Moreover, the median lethal dose (LD50) in data set [1] (ip) worked out at 150 mg/kg; in data set [1] (iv) it was 73.3 mg/kg; in data set [1] (po), 390 mg/kg.

In data set [1] (ip), `Clc1ccccc1OCCCNCCc1ccncc1` [Compound F, N-[4-Pyridyl-ethyl(2)]-o-chloro-phenoxypropylamine dioxalate dihydrate] came in with an LD50 of over 800 mg/kg.

Values taken from patent US4005096A, “Therapeutically active phenoxyalkylamines” (Biersdorf Aktiengesellschaft, priority 1973, dated 1977).
